From patent US11986452B2, “Methods of reducing the risk of heart failure” (Amarin Pharmaceuticals Ireland Limited, priority 2021, dated 2024)

Test system: statin-treated patients with established CVD or at high risk for CVD, and hypertriglyceridemia
Assay: REDUCE-IT time-to-first-event analysis of adjudicated cardiovascular endpoints (primary, key secondary, secondary, tertiary)
Assay type: in vivo, human
Description: The following study, also referred to as the REDUCE-IT clinical trial, was a large cardiovascular (CV) outcome trial designed to assess CV risk reduction benefit of AMR101 treatment (commercially known as VASCEPA®) versus placebo on the 5-point primary composite endpoint: CV death, non-fatal stroke, non-fatal myocardial infarction (MI), coronary revascularizations, or unstable angina requiring hospitalization.
A multi-center, prospective, randomized, double-blind, placebo-controlled, parallel-group study was performed to evaluate the effect of AMR101 (4 g per day) on cardiovascular health and mortality in hypertriglyceridemic patients with cardiovascular disease or at high risk for cardiovascular disease. The intended expanded indication of the study was treatment with AMR101 as an add-on to statin therapy to reduce the risk of cardiovascular events in patients with clinical cardiovascular disease or with multiple risk factors for cardiovascular disease.
The primary objective of this study was, in patients at LDL-C goal while on statin therapy, with established cardiovascular disease (CVD) or at high risk for CVD, and hypertriglyceridemia (e.g., fasting triglycerides (TG) 200 mg/dL and <500 mg/dL), to evaluate the effect of AMR101 4 g daily on time from randomization to first occurrence of any component of the composite of the following major CV events: CV death; nonfatal MI; (including silent MI; electrocardiograms (ECGs) were performed annually for the detection of silent MIs); nonfatal stroke; coronary revascularization; and unstable angina determined to be caused by myocardial ischemia by invasive/non-invasive testing and requiring emergent hospitalization.
The key secondary objective of this study was to evaluate the effect of AMR101 4 g daily on the time from randomization to the first occurrence of the composite of following major CV events: CV death, nonfatal MI (including silent MI), and nonfatal stroke.
Other secondary objectives for this study were to evaluate the effect of therapy on time from randomization to the first occurrence of the following individual or composite endpoints: composite of CV death or nonfatal MI (including silent MI); fatal or nonfatal MI (including silent MI); non-elective coronary revascularization represented as the composite of emergent or urgent classifications; CV death; unstable angina determined to be caused by myocardial ischemia by invasive/non-invasive testing and requiring emergent hospitalization; fatal or nonfatal stroke; composite of total mortality, nonfatal MI (including silent MI), or nonfatal stroke; and total mortality.
Primary Efficacy Endpoint: The primary efficacy endpoint was time from randomization to the first occurrence of the composite of the following clinical events: CV death; nonfatal MI (including silent MI; ECGs were performed annually for the detection of silent MIs); nonfatal stroke; coronary revascularization; and unstable angina determined to be caused by myocardial ischemia by invasive/non-invasive testing and requiring emergent hospitalization. The first occurrence of any of these major adverse vascular events during the follow-up period of the study were included in the incidence.
Secondary Efficacy Endpoints: The key secondary efficacy endpoint was the time from randomization to the first occurrence of the composite of CV death, nonfatal MI (including silent MI), or nonfatal stroke. […]

[1] = 4 g per day, hierarchical testing
[2] = 4 g/day, time to first occurrence, ITT, median follow up 4.9 years

## CC/C=C\C/C=C\C/C=C\C/C=C\C/C=C\CCCC(=O)OCC [icosapent ethyl, eicosapentaenoic acid ethyl ester]
[1]
  Cardiovascular death: RRR: 20%
  Composite of cardiovascular death or nonfatal myocardial infarction: RRR: 25%
  Composite of total mortality, nonfatal myocardial infarction, or nonfatal stroke: reduction: 23%
  Fatal or nonfatal myocardial infarction: RRR: 31%
  Fatal or nonfatal stroke: RRR: 28%
  Total mortality: reduction: 13%
4 g/day vs placebo
  Sudden death: reduction: 31%
4 g/day, ITT
  Cardiovascular death: HR vs placebo: 0.80
  Cardiovascular death: patients with event: 4.3%
  Total mortality: HR vs placebo: 0.87
  Total mortality: patients with event: 6.7%
[2]
  Key secondary composite endpoint (CV death, nonfatal MI, or nonfatal stroke): patients with event: 11.2%
  Primary composite endpoint (CV death, nonfatal MI, nonfatal stroke, coronary revascularization, or unstable angina): patients with event: 17.2%
Tertiary endpoint
  Cardiac Arrest: HR vs placebo: 0.52
  Coronary Revascularization: HR vs placebo: 0.66
  Elective Revascularization: HR vs placebo: 0.68
  Emergent Revascularization: HR vs placebo: 0.62
  Ischemic Stroke: HR vs placebo: 0.64
  New Heart Failure Requiring Hospitalization: HR vs placebo: 0.97
  New Heart Failure: HR vs placebo: 0.95
  Primary Endpoint in Patients with Diabetes at Baseline: HR vs placebo: 0.77
  Salvage Revascularization: HR vs placebo: 0.00
  Sudden Cardiac Death: HR vs placebo: 0.69
  Urgent Revascularization: HR vs placebo: 0.66
Tertiary endpoint, 4 g/day
  Primary Endpoint in Patients with Diabetes at Baseline: patients with event: (18.1%)
  Sudden Cardiac Death: patients with event: (1.5%)
